The results in this text go back to patent US7528151B2, “Heterocyclic urea derivatives for the treatment of pain” (Glaxo Group Limited, priority 2003, dated 2009).

Each structure is given as a SMILES string. Counter-ions that a name gives are not always drawn.

The target in this assay is T1, human VR1 (Homo sapiens, UniProt Q8NER1).
T1 construct: expressed in transfected cells
Description: FLIPR based calcium assay, capsaicin-induced response in 1321N1 cells stably expressing human VR1. The conditions noted are these: antagonism of capsaicin response; pKb generated from IC50 using the Cheng-Prusoff equation. The assay is classed as cell-based. How it is done: Transfected astrocytoma 1321N1 cells, stably expressing human VR1, were seeded into FLIPR plates at 25,000cells/well (96-well plate) and cultured overnight. The cells were subsequently loaded in medium containing 4 μM Fluo-3 AM (Molecular Probes) for 2 hours, at room temperature, in the dark. The plates were then washed 4 times with Tyrode containing 1.5 mM calcium, without probenecid. The cells were pre-incubated with compound or buffer control at room temperature for 30 minutes. Capsaicin (Sigma) was then added to the cells. Compounds having antagonist activity against the human VR1 were identified by detecting differences in fluorescence when measured after capsaicin addition, compared with no compound buffer controls.

As usually defined, the Kb is the affinity of an antagonist, worked out from how it opposes an agonist.

T1 sequence (Q8NER1 whole entry): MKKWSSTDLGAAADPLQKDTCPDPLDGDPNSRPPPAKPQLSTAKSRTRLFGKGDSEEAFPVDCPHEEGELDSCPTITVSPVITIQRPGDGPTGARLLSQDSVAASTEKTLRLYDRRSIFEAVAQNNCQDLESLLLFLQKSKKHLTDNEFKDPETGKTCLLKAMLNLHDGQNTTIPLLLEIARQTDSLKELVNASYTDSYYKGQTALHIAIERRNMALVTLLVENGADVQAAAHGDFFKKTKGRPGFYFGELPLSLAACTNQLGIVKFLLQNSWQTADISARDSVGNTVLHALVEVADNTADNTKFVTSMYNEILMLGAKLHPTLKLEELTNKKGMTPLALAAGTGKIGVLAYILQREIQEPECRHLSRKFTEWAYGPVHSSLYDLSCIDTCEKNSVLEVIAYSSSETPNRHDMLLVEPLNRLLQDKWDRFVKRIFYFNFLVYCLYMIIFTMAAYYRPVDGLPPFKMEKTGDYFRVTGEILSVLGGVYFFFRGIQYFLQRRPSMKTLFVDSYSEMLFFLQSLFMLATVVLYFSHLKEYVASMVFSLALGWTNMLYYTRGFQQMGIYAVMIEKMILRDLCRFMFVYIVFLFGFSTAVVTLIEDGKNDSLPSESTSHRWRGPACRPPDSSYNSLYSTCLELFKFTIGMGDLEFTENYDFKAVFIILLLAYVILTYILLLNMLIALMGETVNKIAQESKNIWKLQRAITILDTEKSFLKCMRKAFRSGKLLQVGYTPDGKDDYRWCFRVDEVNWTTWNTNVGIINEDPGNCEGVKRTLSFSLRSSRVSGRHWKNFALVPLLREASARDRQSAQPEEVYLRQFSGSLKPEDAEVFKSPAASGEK

With `Cc1nccc2c(NC(=O)NC3CCN(c4ncc(C(F)(F)F)cc4Cl)CC3)cccc12` [Example 1, 1-([3-Chloro-5-trifluoromethylpyridinyl-2-yl]piperidin-4-yl)-3-(1-methyl-isoquinolin-5-yl)-urea hydrochloride], the Kb is under 100 nM.

`COc1nc(N2CCC(NC(=O)Nc3cccc4c(C)nccc34)CC2)ccc1C(F)(F)F` [Example 2, 1-([6-Methoxy-5-trifluoromethylpyridinyl-2-yl]piperidin-4-yl)-3-(1-methyl-isoquinolin-5-yl)-urea hydrochloride]: the Kb was under 100 nM.
